Assay results taken from ChEMBL document CHEMBL2311263, “Dibenzosuberones as p38 mitogen-activated protein kinase inhibitors with low ATP competitiveness and outstanding whole blood activity” (J Med Chem, 2013).
The source made the active and inactive calls. The calls are words filed in the database; no cut-off is given here.

Experiments:
[1] = biological target: T1, Mitogen-activated protein kinase 14 (Homo sapiens, UniProt Q16539); assay: Inhibition of p38alpha MAP kinase in whole blood (unknown origin) assessed as lipopolysaccharide-stimulated TNF-alpha release by ELISA
[2] = biological target: T1, Mitogen-activated protein kinase 14; assay: Inhibition of p38alpha MAP kinase (unknown origin) by ELISA
[3] = biological target: T1, Mitogen-activated protein kinase 14; assay: Inhibition of p38alpha MAP kinase in whole blood (unknown origin) assessed as lipopolysaccharide-stimulated TNF-alpha release measuring residual activity at 10 uM by ELISA
[4] = biological target: Mitogen-activated protein kinase 11 (Homo sapiens) (UniProt Q15759); assay: Inhibition of p38beta MAP kinase (unknown origin)
[5] = biological target: Casein kinase I isoform epsilon (Homo sapiens) (UniProt P49674); assay: Inhibition of CSNK1E (unknown origin)
[6] = biological target: T1, Mitogen-activated protein kinase 14; conditions: Blood, 1 uM

T1 sequence (Q16539 whole entry): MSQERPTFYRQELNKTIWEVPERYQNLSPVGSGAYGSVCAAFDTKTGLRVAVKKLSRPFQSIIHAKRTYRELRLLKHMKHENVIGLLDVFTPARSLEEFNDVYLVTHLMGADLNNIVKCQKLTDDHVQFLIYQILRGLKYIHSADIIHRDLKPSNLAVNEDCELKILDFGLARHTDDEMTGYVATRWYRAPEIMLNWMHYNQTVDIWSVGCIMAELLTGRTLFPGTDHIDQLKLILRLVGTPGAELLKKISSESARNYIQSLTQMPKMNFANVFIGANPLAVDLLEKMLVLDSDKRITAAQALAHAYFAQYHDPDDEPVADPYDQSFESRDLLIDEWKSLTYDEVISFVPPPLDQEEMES
Sequence of Mitogen-activated protein kinase 11 (Homo sapiens) (Q15759 whole entry, canonical isoform): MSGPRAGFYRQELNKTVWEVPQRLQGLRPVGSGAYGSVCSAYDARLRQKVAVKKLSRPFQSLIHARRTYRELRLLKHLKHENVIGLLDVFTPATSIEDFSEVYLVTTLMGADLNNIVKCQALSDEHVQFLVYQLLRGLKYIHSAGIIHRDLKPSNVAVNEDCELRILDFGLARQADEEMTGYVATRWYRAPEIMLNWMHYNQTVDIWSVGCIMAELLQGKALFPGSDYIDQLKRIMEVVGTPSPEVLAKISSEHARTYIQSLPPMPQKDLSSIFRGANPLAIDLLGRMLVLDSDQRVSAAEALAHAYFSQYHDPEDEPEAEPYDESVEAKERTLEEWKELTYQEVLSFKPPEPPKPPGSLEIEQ
Sequence of Casein kinase I isoform epsilon (Homo sapiens) (P49674 whole entry, looked up, canonical isoform): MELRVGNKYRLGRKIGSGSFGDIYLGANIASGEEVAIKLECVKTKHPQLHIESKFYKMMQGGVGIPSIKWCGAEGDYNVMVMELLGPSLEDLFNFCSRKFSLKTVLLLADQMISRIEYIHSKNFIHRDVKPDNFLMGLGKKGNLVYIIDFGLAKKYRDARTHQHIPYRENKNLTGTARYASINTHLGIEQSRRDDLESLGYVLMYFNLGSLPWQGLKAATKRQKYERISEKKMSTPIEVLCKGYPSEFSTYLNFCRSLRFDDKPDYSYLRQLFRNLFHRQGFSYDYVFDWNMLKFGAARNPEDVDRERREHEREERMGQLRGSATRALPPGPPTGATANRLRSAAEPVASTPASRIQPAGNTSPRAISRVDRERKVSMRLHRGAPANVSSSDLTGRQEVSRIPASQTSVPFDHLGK

| SMILES | IC50 [1] [nM] | IC50 [2] [nM] | further results |
| --- | --- | --- | --- |
| CC(=O)Oc1ccc2c(c1)C(=O)c1ccc(Nc3ccc(F)cc3F)cc1CC2 | 2300 | 29 | – |
| C[C@@H](NC(=O)c1ccc2c(c1)C(=O)c1ccc(Nc3ccc(F)cc3F)cc1CC2)C1CCCCC1 | 7600 | 89 | – |
| O=C(NCCF)c1ccc2c(c1)C(=O)c1ccc(Nc3ccc(F)cc3F)cc1CC2 | 83 | 2 | – |
| CNC(=O)c1ccc2c(c1)C(=O)c1ccc(Nc3ccc(F)cc3F)cc1CC2 | 37 | 3 | – |
| O=C(NC(CO)CO)c1ccc2c(c1)C(=O)c1ccc(Nc3ccc(F)cc3F)cc1CC2 | 17 | 9 | – |
| O=C(Nc1ccc(F)c(Nc2ccc3c(c2)CCc2ccc(OCCO)cc2C3=O)c1)c1ccccc1 | 9000 | 2 | – |
| O=C1c2ccc(Nc3ccc(F)cc3F)cc2CCc2ccc(C(=O)N3CCOCC3)cc21 | – | 44 | Activity [3]: 39% |
| COC(=O)c1ccc2c(c1)C(=O)c1ccc(Nc3ccc(F)cc3F)cc1CC2 | 160 | 2 | – |
| O=C(NCCCl)c1ccc2c(c1)C(=O)c1ccc(Nc3ccc(F)cc3F)cc1CC2 | 64 | 3 | – |
| CN1CCN(CCCNC(=O)c2ccc3c(c2)C(=O)c2ccc(Nc4ccc(F)cc4F)cc2CC3)CC1 | 19 | 10 | – |
| O=C(NCC(O)CO)c1ccc2c(c1)C(=O)c1ccc(Nc3ccc(F)cc3F)cc1CC2 (configuration not stated) | 29 | 2 | inhibition [4]: Active |
| CN(C)CCNC(=O)c1ccc2c(c1)C(=O)c1ccc(Nc3ccc(F)cc3F)cc1CC2 | 18 | 3 | – |
| CCOC(=O)c1ccc2c(c1)C(=O)c1ccc(Nc3ccc(F)cc3F)cc1CC2 | 270 | 3 | – |
| O=C(Nc1cc(Nc2ccc3c(c2)CCc2ccc(OC[C@H](O)CO)cc2C3=O)ccc1F)c1cccs1 | 42 | 7 | – |
| O=C(Nc1cc(Nc2ccc3c(c2)CCc2ccccc2C3=O)c(F)cc1F)c1ccccc1 | 290 | 4 | – |
| Cc1cc(F)c(NC(=O)C2CCOC2)cc1Nc1ccc2c(c1)CCc1ccc(OCCN3CCOCC3)cc1C2=O (configuration not stated) | 570 | 98 | – |
| CSCCNC(=O)c1ccc2c(c1)C(=O)c1ccc(Nc3ccc(F)cc3F)cc1CC2 | 36 | 2 | – |
| CC1(C)OC[C@@H](COc2ccc3c(c2)C(=O)c2ccc(Nc4ccc(F)c(NC(=O)c5ccccc5)c4)cc2CC3)O1 | 450 | 27 | – |
| O=C(NCCO)c1ccc2c(c1)C(=O)c1ccc(Nc3ccc(F)cc3F)cc1CC2 | 27 | 5 | – |
| O=C(NCCN1CCOCC1)c1ccc2c(c1)C(=O)c1ccc(Nc3ccc(F)c(NC(=O)c4ccccc4)c3)cc1CC2 | – | – | inhibition [5]: Active; inhibition [4]: Active |
| O=C(OCCO)c1ccc2c(c1)C(=O)c1ccc(Nc3ccc(F)cc3F)cc1CC2 | 210 | 2 | – |
| Cc1cc(F)c(NC(=O)c2ccoc2)cc1Nc1ccc2c(c1)CCc1ccc(OCCN3CCOCC3)cc1C2=O | 32 | 1 | – |
| NC(=O)c1ccc2c(c1)C(=O)c1ccc(Nc3ccc(F)cc3F)cc1CC2 | 19 | 10 | – |

| SMILES | IC50 [1] [nM] | IC50 [2] [nM] | further results |
| --- | --- | --- | --- |
| O=C1c2ccc(Nc3cc(NC(=O)C4CCOC4)c(F)cc3F)cc2CCc2ccc(OCCN3CCOCC3)cc21 (configuration not stated) | 150 | 12 | – |
| O=C(Nc1cc(Nc2ccc3c(c2)CCc2ccc(OCCO)cc2C3=O)ccc1F)c1ccccc1 | 2400 | 2 | – |
| CS(=O)(=O)CCNC(=O)c1ccc2c(c1)C(=O)c1ccc(Nc3ccc(F)cc3F)cc1CC2 | 50 | 3 | – |
| O=C(Nc1cc(Nc2ccc3c(c2)CCc2ccc(OCCN4CCOCC4)cc2C3=O)ccc1F)c1ccoc1 | 110 | 1 | – |
| O=C(NCCN1CCOCC1)c1ccc2c(c1)C(=O)c1ccc(Nc3ccc(F)cc3F)cc1CC2 | 29 | 3 | – |
| CCCOC(=O)c1ccc2c(c1)C(=O)c1ccc(Nc3ccc(F)cc3F)cc1CC2 | 220 | 8 | – |
| CNC(=O)CC[C@H](NC(=O)c1ccc2c(c1)C(=O)c1ccc(Nc3ccc(F)cc3F)cc1CC2)C(=O)NC | 64 | 14 | – |
| O=C1c2ccc(Nc3ccc(F)c(NC(=O)C4CCOC4)c3)cc2CCc2ccc(OCCO)cc21 (configuration not stated) | 1500 | 20 | – |
| O=C(O)c1ccc2c(c1)C(=O)c1ccc(Nc3ccc(F)cc3F)cc1CC2 | 490 | 11 | – |
| COc1ccc2c(c1)C(=O)c1ccc(Nc3ccc(F)c(NC(=O)c4ccccc4)c3)cc1CC2 | 4100 | 21 | – |
| COC(=O)[C@H](CC(C)C)NC(=O)c1ccc2c(c1)C(=O)c1ccc(Nc3ccc(F)cc3F)cc1CC2 | 460 | 7 | – |
| COC(=O)CC[C@H](NC(=O)c1ccc2c(c1)C(=O)c1ccc(Nc3ccc(F)cc3F)cc1CC2)C(=O)OC | 18 | 5 | – |
| O=C(OCCN1CCOCC1)c1ccc2c(c1)C(=O)c1ccc(Nc3ccc(F)cc3F)cc1CC2 | 240 | 1 | – |
| O=C(Nc1cc(Nc2ccc3c(c2)CCc2ccc(OCCN4CCOCC4)cc2C3=O)ccc1F)c1ccccc1 | 260 | 1 | – |
| CCOC(=O)CNC(=O)c1ccc2c(c1)C(=O)c1ccc(Nc3ccc(F)cc3F)cc1CC2 | 95 | 6 | – |
| O=C(Nc1cc(Nc2ccc3c(c2)CCc2ccc(OCCN4CCOCC4)cc2C3=O)ccc1F)c1cccs1 | 95 | 0.7 | – |
| CC1(C)OC[C@H](COc2ccc3c(c2)C(=O)c2ccc(Nc4ccc(F)c(NC(=O)c5cccs5)c4)cc2CC3)O1 | 300 | 2 | – |
| O=C(Nc1cc(Nc2ccc3c(c2)CCc2ccc(OCCN4CCOCC4)cc2C3=O)c(F)cc1F)c1ccsc1 | 12 | – | – |
| O=C(Nc1cc(Nc2ccc3c(c2)CCc2ccc(OCCN4CCOCC4)cc2C3=O)ccc1F)c1ccsc1 | 26 | 0.3 | – |
| COCCNC(=O)c1ccc2c(c1)C(=O)c1ccc(Nc3ccc(F)cc3F)cc1CC2 | 54 | 5 | – |
| CC(C)C[C@H](NC(=O)c1ccc2c(c1)C(=O)c1ccc(Nc3ccc(F)cc3F)cc1CC2)C(=O)O | – | 94 | inhibition [6]: inactive |
| CN1CCN(CCNC(=O)c2ccc3c(c2)C(=O)c2ccc(Nc4ccc(F)cc4F)cc2CC3)CC1 | 27 | 10 | – |
| O=C(Nc1cc(Nc2ccc3c(c2)CCc2ccc(OCCN4CCOCC4)cc2C3=O)c(F)cc1F)c1ccccc1 | 220 | 1 | – |
